Laboratory results from PubChem BioAssay AID1918956 (Molecular Pharmacology Branch, DTP, NCI, 2023).
pIC50: −log10 of the molar value.

Tested on: OVCAR-5 complex spheroids, viability
Assay: Anticancer human tumor OVCAR-5 cell line growth inhibition;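 also: spheroids exposed to agents for seven days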;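 as to viability, T/C: 100% = DMSO vehicle control wells viability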
Conditions: for pIC50: curve of first compound; for viability, T/C: stronger effect = lower value
How it was run: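 Multicellular complex spheroids of tumor cells with human endothelial cells (HUVEC) and mesenchymal stem cells; the LSD1 inhibitor iadademstat was combined with standard-of-care or investigational agents. Top concentration at or near clinical Cmax, half-log dilutions; final DMSO ≤0.25%.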

[1] = second compound 0.1 µM, first compound 0.0316 µM
[2] = second compound 0.1 µM, first compound 0.1 µM
[3] = second compound 0.1 µM, first compound 0.316 µM
[4] = second compound 0.1 µM, first compound 1 µM
[5] = second compound 0.1 µM, first compound 3.16 µM
[6] = second compound 0.1 µM, first compound 10 µM
[7] = second compound 0.316 µM, first compound 0.0316 µM
[8] = second compound 0.316 µM, first compound 0.1 µM
[9] = second compound 0.316 µM, first compound 0.316 µM
[10] = second compound 0.316 µM, first compound 1 µM
[11] = second compound 0.316 µM, first compound 3.16 µM
[12] = second compound 0.316 µM, first compound 10 µM
[13] = second compound 1 µM, first compound 0.0316 µM
[14] = second compound 1 µM, first compound 0.1 µM
[15] = second compound 1 µM, first compound 0.316 µM
[16] = second compound 1 µM, first compound 1 µM
[17] = second compound 1 µM, first compound 3.16 µM
[18] = second compound 1 µM, first compound 10 µM
[19] = second compound 3.16 µM, first compound 0.0316 µM
[20] = second compound 3.16 µM, first compound 0.1 µM
[21] = second compound 3.16 µM, first compound 0.316 µM
[22] = second compound 3.16 µM, first compound 1 µM
[23] = second compound 3.16 µM, first compound 3.16 µM
[24] = second compound 3.16 µM, first compound 10 µM
[25] = second compound 10 µM, first compound 0.0316 µM
[26] = second compound 10 µM, first compound 0.1 µM
[27] = second compound 10 µM, first compound 0.316 µM
[28] = second compound 10 µM, first compound 1 µM
[29] = second compound 10 µM, first compound 3.16 µM
[30] = second compound 10 µM, first compound 10 µM

Compound | pIC50 (second compound 0.1 µM) | pIC50 (second compound 0.316 µM) | pIC50 (second compound 1 µM) | pIC50 (second compound 3.16 µM) | pIC50 (second compound 10 µM) | viability, T/C [1] | viability, T/C [2] | viability, T/C [3] | viability, T/C [4] | viability, T/C [5] | viability, T/C [6] | viability, T/C [7] | viability, T/C [8] | viability, T/C [9] | viability, T/C [10] | viability, T/C [11] | viability, T/C [12] | viability, T/C [13] | viability, T/C [14] | viability, T/C [15] | also measured
CC1(C)CCC(CN2CCN(c3ccc(C(=O)NS(=O)(=O)c4ccc(NCC5CCOCC5)c([N+](=O)[O-])c4)c(Oc4cnc5[nH]ccc5c4)c3)CC2)=C(c2ccc(Cl)cc2)C1 + NC1CCC(NC2CC2c2ccccc2)CC1 | 5.15 | 5.15 | 5.17 | 5.20 | 5.26 | 116% | 97.5% | 105% | 98.9% | 111% | 27.1% | 108% | 97.6% | 98.4% | 108% | 111% | 26.2% | 97.6% | 91.5% | 92.3% | viability, T/C [16]: 101%; viability, T/C [17]: 96.1%; viability, T/C [18]: 27%; viability, T/C [19]: 99.9%; viability, T/C [20]: 106%; viability, T/C [21]: 105%; viability, T/C [22]: 104%; viability, T/C [23]: 88.8%; viability, T/C [24]: 23.8%; viability, T/C [25]: 90.7%; viability, T/C [26]: 93.3%; viability, T/C [27]: 78.4%; viability, T/C [28]: 91.7%; viability, T/C [29]: 72.8%; viability, T/C [30]: 24.9%
CC1COCCN1c1cc(C2(S(C)(=N)=O)CC2)nc(-c2ccnc3[nH]ccc23)n1 (stereo not given) + NC1CCC(NC2CC2c2ccccc2)CC1 | 5.60 | 5.58 | 5.52 | 5.57 | 5.66 | 102% | 116% | 97.7% | 69.9% | 47.4% | 35.6% | 108% | 103% | 94.7% | 70% | 45.8% | 37.2% | 109% | 99.5% | 97.8% | viability, T/C [16]: 70.9%; viability, T/C [17]: 50.5%; viability, T/C [18]: 36%; viability, T/C [19]: 104%; viability, T/C [20]: 106%; viability, T/C [21]: 97%; viability, T/C [22]: 70.2%; viability, T/C [23]: 48.4%; viability, T/C [24]: 37.1%; viability, T/C [25]: 84%; viability, T/C [26]: 82.4%; viability, T/C [27]: 79.2%; viability, T/C [28]: 61.3%; viability, T/C [29]: 45.3%; viability, T/C [30]: 34%
